From patent publication US20060121449A1, “Method for selection of compounds which inhibit clonal cell growth and use thereof” (priority 2002, published 2006)
Entries after “also recorded” stand apart in the source; their conditions may differ. Like-named read-outs stand apart in the source and are kept apart here.

How the values were obtained:
[1] = system: polyoma virus transformed BHK21/c13 cells, line S100T1; test: Collocation inhibition test: clonal growth in sparsely and densely seeded areas of a cell density gradient of S100T1 cells in soft agar (Exp 13, 17, 19-26); conditions: for Resulting clonal growth of treated cultures: Experiment 26, read after 24 hours;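 on all read-outs here: soft agar cultures in 24-well plates with a cell density gradient in the top layer, compounds applied from DMSO stocks, clonal growth scored in sparse versus dense areas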;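 on clonal growth: grades from − to +++ rise with clonal growth while − and +− count as negative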
[2] = system: spleen antibody producing cells against sheep red cells; test: Jerne's test: haemolytic plaques of spleen cells after immunisation with sheep red cells (Exp 10); type: in vivo, mouse; conditions: Exp 10 animal 2, low: 2 μl 20 mM s.c. (est. max extracellular 4.6 μM)
Ehrlich ascites tumour = conditions: for Rescue of mice from transplanted Ehrlich tumour: suboptimal (moderate) dose alone, started the day after transplantation
Experimental: Tumour cells harvested from ascitic mouse were mainly solitary.
The experiment describes transplantation of the malignant mouse Ehrlich ascites tumour to two adult male mice (NMRI/Bom). Each of them received 100000 cells intraperitonally. One mouse was treated two times a week with 4-OH-OPB intraperitonally.
Cells were injected 90 minutes after the addition of 4-OH-OPB to the suspension. The control received the same cell suspension without 4-OH-OPB.
At the same time, dilutions of 4-OH-OPB were injected intraperitonally to the transplanted mice in order to find the smallest active dose.
The cells from ascites in the untreated control mouse was frozen on serum with 10% DMSO. The cells were thawed in water of 37° C., diluted in serum, and pelleted by low speed centrifugation after the addition of 2 ml FBS, to remove DMSO.
Each animal received such cells suspended in portions of 1 ml in RPMI (pH˜6.9).
The frozen and thawed Ehrlich ascites cells are diluted in a volume of 1 ml RPMI (pH˜6.9) for each animal. No calf serum was added to the medium to avoid immunisation of the mice.
Cell number: 90000 tumour cells in 0.7 ml RPMI were injected intraperitonally to each animal.
The total cell number in the ampoule was 7.5 million cells. The cells were thawed, and 2 ml FBS was added before low speed centrifugation. […] Than separate vessels were prepared for each animal. The cell tube for animal number 3 received Colchicine as indicated in the table on day 0 one hour before the cells were injected.
After mixing the same volume was transferred from this tube to the last tube.
The content of the last two tubes was injected intraperitonally to each of the mice number 1 and 2 respectively.

[3] = Exp 7, 1.62 μl 20 mM i.p. two times a week, 45.5 at day 0
[4] = Exp 8 mouse 1: 1.26 μl 20 mM i.p. from day 0 (42 μM i.p.)
[5] = Exp 8 mouse 2: 0.42 μl 20 mM i.p. from day 0 (14 μM i.p.)
[6] = Exp 8 mouse 3: 0.14 μl 20 mM i.p. from day 0 (4.7 μM i.p.)
[7] = Exp 8 mouse 4: 0.047 μl 20 mM i.p. from day 0 (1.6 μM i.p.)
[8] = Exp 8 mouse 6: 1.13 μl 20 mM i.p., first injection 24 h after tumour (37.7 μM i.p.)
[9] = Exp 8 mouse 7: 1.09 μl 20 mM i.p., first injection 3 days after tumour
[10] = Exp 8 mouse 7: 1.09 μl 20 mM i.p., first injection 3 days after tumour (36.3 μM i.p.)
[11] = Exp 8 mouse 7: 1.09 μl 20 mM i.p., first injection 3 days after tumour (36.3 μM i.p.), listed as 4-OH—OPB

CCCCC1(O)C(=O)N(c2ccccc2)N(c2ccc(O)cc2)C1=O (stereo not shown) [4-OH-OPB, 4-butyl-4-hydroxy-2(p-hydroxyphenyl)-1-phenyl-3,5-pyrazolidinedione]
Clonal growth ([1]; Experiment 22, H: area with high cell density, Low concentration): ++
Clonal growth ([1]; Experiment 22, H: area with high cell density, Medium concentration): (+)
Clonal growth ([1]; Experiment 22, L: area with low cell density, High concentration): −
Clonal growth ([1]; Experiment 22, L: area with low cell density, Low concentration): −
Clonal growth ([1]; Experiment 22, L: area with low cell density, Medium concentration): −
Clonal growth ([1]; Experiment 23, A (area with high cell density), High concentration, 48 hours): (+)
Clonal growth ([1]; Experiment 23, A (area with high cell density), Low concentration, 48 hours): ++(+)
Clonal growth ([1]; Experiment 23, A (area with high cell density), Medium concentration, 48 hours): +
Clonal growth ([1]; Experiment 23, B (area with low cell density), High concentration, 48 hours): −
Clonal growth ([1]; Experiment 23, B (area with low cell density), Low concentration, 48 hours): −
Clonal growth ([1]; Experiment 23, B (area with low cell density), Medium concentration, 48 hours): −
Clonal growth ([1]; Experiment 24, H: area with high cell density, High concentration, 48 hours): +
Clonal growth ([1]; Experiment 24, H: area with high cell density, Low concentration, 48 hours): ++(+)
Clonal growth ([1]; Experiment 24, H: area with high cell density, Medium concentration, 48 hours): +
Clonal growth ([1]; Experiment 24, H: area with high cell density, X-low concentration, 48 hours): +(+)
Clonal growth ([1]; Experiment 24, H: area with high cell density, XX-low concentration, 48 hours): ++
Clonal growth ([1]; Experiment 24, L: area with low cell density, High concentration, 48 hours): −
Clonal growth ([1]; Experiment 24, L: area with low cell density, Low concentration, 48 hours): −
Clonal growth ([1]; Experiment 24, L: area with low cell density, Medium concentration, 48 hours): −
Clonal growth ([1]; Experiment 24, L: area with low cell density, X-low concentration, 48 hours): −
Clonal growth ([1]; Experiment 24, L: area with low cell density, XX-low concentration, 48 hours): (+)
Clonal growth ([1]; Experiment 25, H: area with high cell density, High concentration, after 48 hours incubation): (+)
Clonal growth ([1]; Experiment 25, H: area with high cell density, Low concentration, after 48 hours incubation): ++(+)
Clonal growth ([1]; Experiment 25, H: area with high cell density, Medium concentration, after 48 hours incubation): ++
Clonal growth ([1]; Experiment 25, H: area with high cell density, X-low concentration, after 48 hours incubation): ++
Clonal growth ([1]; Experiment 25, L: area with low cell density, High concentration, after 48 hours incubation): −
Clonal growth ([1]; Experiment 25, L: area with low cell density, Low concentration, after 48 hours incubation): −
Clonal growth ([1]; Experiment 25, L: area with low cell density, Medium concentration, after 48 hours incubation): −
Clonal growth ([1]; Experiment 25, L: area with low cell density, X-low concentration, after 48 hours incubation): ++
Resulting clonal growth of treated cultures ([1]; H: area with high cell density, High concentration): ++
Resulting clonal growth of treated cultures ([1]; H: area with high cell density, Low concentration): ++
Resulting clonal growth of treated cultures ([1]; H: area with high cell density, Medium concentration): ++
Resulting clonal growth of treated cultures ([1]; L: area with low cell density, High concentration): −
Resulting clonal growth of treated cultures ([1]; L: area with low cell density, Low concentration): (+)
Resulting clonal growth of treated cultures ([1]; L: area with low cell density, Medium concentration): −
Control of metastatic cells leaving tumour ([1]; ability of cells to leave a tumour, grow and infiltrate locally or grow in sparsely seeded areas, concluded from Exp 17): yes
Control of settlement of metastatic cells ([1]; single cells or very few cells spread to distant sites, concluded from Exp 17): completely
Toxicity for body or dense cell populations ([1]; supposed main advantages or disadvantages if used in cancer treatment, concluded from Exp 17): none or small
Tolerating long duration of treatment ([1]; supposed, if used in cancer treatment): yes
Spleen weight [2]: 148 mg
Weight of treated mouse, day 14 (Ehrlich ascites tumour; [3]): 42.6 g
Weight of treated mouse, day 18 (Ehrlich ascites tumour; [3]): 44.3 g
Tumour findings in treated mouse after 19 days (Ehrlich ascites tumour; Exp 7, 1.62 μl 20 mM i.p. two times a week, 100000 Ehrlich cells i.p.): No tumour was detected; also recorded: completely normal without any palpable tumour or signs of ascites or anaemia; also recorded: no pathological signs; also recorded: no tumour or ascites observable
Ascites (Ehrlich ascites tumour; Exp 7 treated animal, day 19): 0 grams
Fibrinous material under diaphragm (Ehrlich ascites tumour; Exp 7 treated animal, day 19): 0 grams
Size of organs: Hart (Ehrlich ascites tumour; Exp 7 treated animal, day 19): 0.20 grams
Size of organs: Kidneys (Ehrlich ascites tumour; Exp 7 treated animal, day 19): 0.57 grams
Size of organs: Liver (Ehrlich ascites tumour; Exp 7 treated animal, day 19): 2.38 grams
Size of organs: Lungs (Ehrlich ascites tumour; Exp 7 treated animal, day 19): 0.3 grams
Size of organs: Omentum (Ehrlich ascites tumour; Exp 7 treated animal, day 19): 2.36 grams
Size of organs: Spleen (Ehrlich ascites tumour; Exp 7 treated animal, day 19): 0.184 grams
Tumour in groin (Ehrlich ascites tumour; Exp 7 treated animal, day 19): 0 grams
Dose that did not cure when begun the next day or 3 days after transplantation, relative to minimum curative dose (Ehrlich ascites tumour; Exp 8): about 9 times
Smallest effective dose, in extracellular fluid (Ehrlich ascites tumour; Exp 8): 0.37 µM
Start of treatment needed for complete rescue (Ehrlich ascites tumour; Exp 8): The treatment had to start immediately
Outcome when therapy started 24 hours after transplantation or later (Ehrlich ascites tumour; Exp 8, doses in abdomen of 36-38 μM): development of ascites or ascites with solid tumour in addition
Smallest effective (inhibiting) concentration in the peritoneum (Ehrlich ascites tumour; Exp 8, injected together with the cells and then twice a week): dose was 4.8 μM.
Day 15 status (Ehrlich ascites tumour; [4]): healthy
Day 15 weight (Ehrlich ascites tumour; [4]): 33.9 gram
Day 15 weight/initial weight (Ehrlich ascites tumour; [4]): 0.96
Result (tumour growth) (Ehrlich ascites tumour; [4]): No tumour
Section day 17 (Ehrlich ascites tumour; [4]): No pathology found, neither ascites nor solid tumours
Section day 17 (Ehrlich ascites tumour; Exp 8 mouse 1: 1.26 μl 20 mM i.p. from day 0 (42 μM i.p.), listed as 4-OH—OPB): healthy, no tumour
Day 15 status (Ehrlich ascites tumour; [5]): healthy
Day 15 weight (Ehrlich ascites tumour; [5]): 38.7 gram
Day 15 weight/initial weight (Ehrlich ascites tumour; [5]): 0.97
Section day 17 (Ehrlich ascites tumour; [5]): No pathology found, neither ascites nor solid tumours
Section day 17 (Ehrlich ascites tumour; Exp 8 mouse 2: 0.42 μl 20 mM i.p. from day 0 (14 μM i.p.), listed as 4-OH—OPB): healthy, no tumour
Day 15 status (Ehrlich ascites tumour; [6]): healthy
Day 15 weight (Ehrlich ascites tumour; [6]): 29.3 gram
Day 15 weight/initial weight (Ehrlich ascites tumour; [6]): 1.1
Section day 17 (Ehrlich ascites tumour; [6]): No pathology was found, neither ascites nor solid tumours
Section day 17 (Ehrlich ascites tumour; Exp 8 mouse 3: 0.14 μl 20 mM i.p. from day 0 (4.7 μM i.p.), listed as 4-OH—OPB): healthy, no tumour
Ascites relative to control (Ehrlich ascites tumour; [7]): Ascites (0.66 of contr.) + solid
Day 15 status (Ehrlich ascites tumour; [7]): Ascites
Day 15 weight (Ehrlich ascites tumour; [7]): 37.4 gram
Day 15 weight/initial weight (Ehrlich ascites tumour; [7]): 1.33
Result (tumour growth) (Ehrlich ascites tumour; [7]): Lens-sized tumour at injection site in left abdominal wall
Section day 17: ascites (Ehrlich ascites tumour; Exp 8 mouse 4: 0.047 μl 20 mM i.p. from day 0 (1.6 μM i.p.), control 6.8 ml): 4.5 mL
Section day 17: ascites (Ehrlich ascites tumour; Exp 8 mouse 4: 0.047 μl 20 mM i.p. from day 0 (1.6 μM i.p.), control 6.8 ml, listed as 4-OH—OPB): 4.5 ml ascites
Result (tumour growth) (Ehrlich ascites tumour; Exp 8 mouse 4: 0.047 μl 20 mM i.p. from day 0 (1.6 μM i.p.), listed as 4-OH—OPB): Ascites (0.66 of contr.) + solid
Ascites relative to control (Ehrlich ascites tumour; [8]): Ascites (0.47 of contr.) + solid
Day 15 status (Ehrlich ascites tumour; [8]): Healthy
Day 15 weight (Ehrlich ascites tumour; [8]): 34.5 gram
Day 15 weight/initial weight (Ehrlich ascites tumour; [8]): 1.09
Result (tumour growth) (Ehrlich ascites tumour; [8]): At injection site circular branched tumour
Section day 17: ascites (Ehrlich ascites tumour; Exp 8 mouse 6: 1.13 μl 20 mM i.p., first injection 24 h after tumour (37.7 μM i.p.), control 6.8 ml): 3.15 mL
Section day 17: ascites (Ehrlich ascites tumour; Exp 8 mouse 6: 1.13 μl 20 mM i.p., first injection 24 h after tumour (37.7 μM i.p.), control 6.8 ml, listed as 4-OH—OPB): 3.2 ml ascites, inj. site
Result (tumour growth) (Ehrlich ascites tumour; Exp 8 mouse 6: 1.13 μl 20 mM i.p., first injection 24 h after tumour (37.7 μM i.p.), listed as 4-OH—OPB): Ascites (0.47 of contr.) + solid
Tumour size, Day 8 (Ehrlich ascites tumour; [9]): Tumour = grain
Tumour size, Day 10 (Ehrlich ascites tumour; [9]): Tumour > grain
Ascites relative to control (Ehrlich ascites tumour; [10]): 0.00022 % of contr.
Day 15 status (Ehrlich ascites tumour; [10]): lens-sized
Day 15 weight (Ehrlich ascites tumour; [10]): 30.5 gram
Day 15 weight/initial weight (Ehrlich ascites tumour; [10]): 1.00
Section day 17: ascites (Ehrlich ascites tumour; [10]): 0.015 mL
Section day 17: solid tumour (Ehrlich ascites tumour; [10]): pea-sized
Result (tumour growth) (Ehrlich ascites tumour; [11]): Ascites; also recorded: contr.) + solid
Section day 17: ascites (Ehrlich ascites tumour; [11]): site, 15 μl ascites,
Section day 17: solid tumour (Ehrlich ascites tumour; [11]): Pea-size tumour at inj.
tumour in abdominal wall, findings on section (Ehrlich ascites tumour; Exp 18, at killing, control 2 × 3 mm tumour): Lens sized
ascites with Ehrlich cells, findings on section (Ehrlich ascites tumour; Exp 18, at killing, control 4 ml): 0.1 mL
day 14 status (Ehrlich ascites tumour; Exp 18, day 14 after ip transplantation, mouse 1 killed, mice 2 and 3 marked '?'): Ascites
weight gain in % (Ehrlich ascites tumour; Exp 18, one mouse each, ip: mouse 1 4-OH—OPB from day 1, mouse 2 Etoposide + 4-OH—OPB from day 1, mouse 3 Colchicine from day 0, control mouse 42.4): 32.3%
Rescue of mice from transplanted Ehrlich tumour (Ehrlich ascites tumour; Exp 18): missing cure
Rescue of mice from transplanted Ehrlich tumour (Ehrlich ascites tumour; Exp 18, listed as 4-OH—OPB): not rescued. Colchicine alone in high dose did
